The source of these data is patent US5736384A (priority 1994, dated 1998).

Data set [1] deals with XP2. It is filed as biochemical, Bacillus sp. 2113. The procedure: (§1) Various inhibitors and the like were added to each of the enzyme solutions to a concentration of 1 mM and retained at 4° C. overnight. Then, the same substance was also added to a reaction mixture to a concentration of 1 mM, and the enzyme activities of XP1 and XP2 were determined.
The subject of data set [2] is XP1. The data set is described as follows: biochemical. The format is biochemical, Bacillus sp. 2113. The note with it: inhibitor 1 mM, 4° C. overnight, also 1 mM in reaction mixture, None = 100; for activity at 1000 µM: read-out: Relative Activity(%) XP1. The procedure:
as §1

The subject of data set [3] is XP1. The data set is described as follows: Effects of metal salts on enzyme activity of XP1. The format is biochemical, Bacillus sp. 2113. Conditions: metal salt 1 mM, 4° C. overnight, also 1 mM in reaction mixture; None = 100. How it is done: (§2) Various metal salts were added to each of the enzyme solutions to a concentration of 1 mM and retained at 4° C. overnight. Then, a metal salt of the same kind was also added to a reaction mixture to a concentration of 1 mM, and the enzyme activities of XP1 and XP2 were determined.

The test system of data set [4] is XP2. Description: Effects of metal salts on enzyme activity of XP2. The format is biochemical, Bacillus sp. 2113. Conditions: for Relative Activity(%) XP2: metal salt 1 mM, 4° C. overnight, also 1 mM in reaction mixture, None = 100; for inhibition of XP2 by metal ion (in words): 1 mM. The procedure: as §2
The target in data set [5] is T1, XP1 (Paenibacillus sp. DG-22, UniProt A4GG22). Description: biochemical. The format is biochemical, Bacillus sp. 2113. The note with it: for activity at 1000 µM: read-out: Relative Activity(%) XP1. How it is done:
as §1

In data set [6] the target is T1, XP1. Description: Effects of metal salts on enzyme activity of XP1. It is filed as biochemical, Bacillus sp. 2113. Conditions: 1 mM. The procedure: as §2
Data set [7] in a line: Thermostability (residual activity after 30 min at a certain temperature). It is filed as physicochemical. The note with it: 50 mM Tris-HCl buffer (pH 7.2). How it is done:
In addition, after each enzyme was left in 50 mM Tris-HCl buffer (pH 7.2) for 30 minutes at a certain temperature, the enzyme activity was determined.

Data set [8] in a line: Action: thin-layer chromatography of reaction products from birch xylan. The note with it: 1% birch xylan, pH 7.0, 60° C., 10 U enzyme, TLC. It is filed as biochemical. How it is done:
To 5 ml of 1% birch xylan (Sigma) solution (pH 7.0, in 40 mM sodium phosphate buffer), 10 U of each of XP1 and XP2 was added and reacted at 60° C. After a certain reaction period, the reaction was terminated by boiling and 10 μl of the reaction mixture was subjected to thin-layer chromatography using HPTLC Kieselgel 60 F254 (Merk) as a thin layer and a mixture of n-butanol, acetic acid and water (10:5:1) as a developer. The coloring was carried out by spraying a diphenylamine-aniline reagent and heating at 120° C. for 10 minutes.
The number of minutes shown in this FIG. represents the reaction time of the enzyme.

A short description of data set [9]: Enzyme activity at different temperatures (optimum / appropriate temperature). The format is biochemical. How it is done: (§3) Fifty microliters of a sample solution is added to 200 μl of 1% birch xylan (Sigma) solution (pH 6.5, in 1/10 McIlvaine buffer), and reacted at 70° C. for 5 minutes. Five hundreds microliters of DNS reagent is added thereto and boiled for 5 minutes. Then, the reaction mixture is immediately ice-cooled and 4 ml distilled water is added thereto. Thereafter, absorbance at 500 nm is measured. Calibration curves are prepared by using a xylose solution of known concentration.
(§4) As to the unit of xylanase activity, one unit (U) was defined as the amount of enzyme which releases […] of reducing sugar per minute under the above conditions.
The enzyme activity of each enzyme was determined at different temperatures.

The nature of data set [10]: Determination of xylanase activity (DNS reducing sugar method). It is filed as biochemical. The note with it: purified enzyme. The procedure: as §3, §4
Fifty microliters of the crude enzyme solution was added to 200 μl of 1% birch xylan (Sigma) solution (in 1/10 McIlvaine buffer, pH 6. 5), and reacted at 70° C. for 5 minutes.
After addition of DNS reagent (500 μl) and subsequent boiling for 5 minutes, the reaction mixture was immediately ice-cooled and 4 ml of distilled water was added thereto. Then, absorbance at 500 nm was measured. Calibration curves were prepared by using a xylose solution of known concentration.
As to the unit of xylanase activity, one unit (U) was defined as the amount of enzyme which releases 1 μmol of reducing sugar per minute under the above conditions. […]

The nature of a further data set: Substrate specificity. It is filed as biochemical.
Data set [11] in a line: Optimum pH for reaction (enzyme activity measured at each pH). It is filed as biochemical. How it is done:
(§5) For each of the enzymes, the optimum pH and pH stability were determined by using glycine-HCl buffer (pH 3 or below), acetate buffer (pH 4-5), sodium phosphate buffer (pH 6-7), Tris-HCl buffer (pH 8-9) and glycine-NaOH buffer (pH 9.1-10.1). The enzyme activity of each xylanase was measured at each of the pH values.
as §3, §4

Data set [12] can be described thus: pH stability (enzyme activity after two nights in buffer). The format is physicochemical. The note with it: retained in 50 mM buffer for two nights. How it is done:
as §5
In addition, each of the enzymes was retained in a certain 50 mM buffer for two nights and then the enzyme activity was determined.

[13] abbreviates: inhibitor 1 mM, 4° C. overnight, also 1 mM in reaction mixture, None = 100.

Entries after “also recorded” stand apart in the source; their conditions may differ. Like-named read-outs stand apart in the source and are kept apart here.

T1 sequence (A4GG22 29-211): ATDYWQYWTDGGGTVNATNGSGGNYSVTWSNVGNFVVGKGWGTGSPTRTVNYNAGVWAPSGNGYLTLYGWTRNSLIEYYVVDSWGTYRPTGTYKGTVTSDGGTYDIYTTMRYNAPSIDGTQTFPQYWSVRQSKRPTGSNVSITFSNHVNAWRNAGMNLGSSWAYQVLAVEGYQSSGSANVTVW
T1 sequence (A4GG22 29-211): as above

On to `O[C@H](CS)[C@H](O)CS` (racemic) [Dithiothreitol], for which, in the data set with XP2 [1] (setting [13]), the “Relative Activity(%) XP2” value was determined as 82%. Further, the activity at 1000 µM with XP1 [2] was 85%.
As to `[Cl][Al]([Cl])[Cl]` [AlCl3], the “Relative Activity(%) XP1” value with XP1 [3] stood at 110%. In addition, the “Relative Activity(%) XP2” value in the data set with XP2 [4] came to 100%.
For `[Ba+2].[Cl-].[Cl-]` [BaCl2] the same measures were 137% and 108%.
For `[Ca+2].[Cl-].[Cl-]` [CaCl2] the same measures were 106% and 98%.
For the compound `[Cl-].[Cl-].[Co+2]` [CoCl2], the “Relative Activity(%) XP1” value in the data set on XP1 [3] worked out at 107%. Moreover, in the data set on XP2 [4], the “inhibition of XP2 by metal ion (in words)” value is listed as “weakly inhibited” and the “Relative Activity(%) XP2” value turned out to be 70%.
On to `[Cl][Cu][Cl]` [CuCl2], for which, in the data set with XP1 [3], the “Relative Activity(%) XP1” value is 87%. In addition, in the data set with XP2 [4], the “inhibition of XP2 by metal ion (in words)” value is listed as “weakly inhibited” and the “Relative Activity(%) XP2” value was 68%.
Take `O=C(O)CN(CCN(CC(=O)O)CC(=O)O)CC(=O)O` [EDTA]: in the data set on XP2 [1], the “Relative Activity(%) XP2” value stood at 65% and the “inhibition of XP2 by inhibitor (in words)” value is reported as “weakly inhibited”. At XP1 [5], the “inhibition of XP1 by inhibitor (in words)” value was “weakly inhibited” and the activity at 1000 µM came out at 59%.
Turning to `O=S(=O)([O-])[O-].[Fe+2]` [FeSO4], the “Relative Activity(%) XP1” value with XP1 [3] is listed as 165%. Moreover, the “Relative Activity(%) XP2” value in the data set on XP2 [4] turned out to be 99%.
On to `[Cl][Hg][Cl]` [HgCl2], for which the “inhibition of XP1 by metal ion (in words)” value on XP1 [6] is listed as “strongly inhibited”. For the same compound, in the data set with XP1 [3], the “Relative Activity(%) XP1” value is reported as 24%. Moreover, in the data set on XP2 [4], the “inhibition of XP2 by metal ion (in words)” value is listed as “strongly inhibited” and the “Relative Activity(%) XP2” value is recorded as 0%.
Consider `O=C(O)CI` [Iodoacetic acid], for which, in the data set with XP2 [1], the “Relative Activity(%) XP2” value amounted to 76% and the “inhibition of XP2 by inhibitor (in words)” value is “weakly inhibited”. Besides, at XP1 [5], the “inhibition of XP1 by inhibitor (in words)” value is recorded as “weakly inhibited” and the activity at 1000 µM was determined as 75%.
On to `[Cl-].[Li+]` [LiCl], for which the “Relative Activity(%) XP1” value with XP1 [3] came out at 128%. The “Relative Activity(%) XP2” value in the data set with XP2 [4] is 99%.
The corresponding values for `[Cl-].[Cl-].[Mg+2]` [MgCl2] are 129% and 103%.
With `[Cl][Mn][Cl]` [MnCl2], the “Relative Activity(%) XP1” value in the data set on XP1 [3] turned out to be 99%. In addition, in the data set with XP2 [4], the “inhibition of XP2 by metal ion (in words)” value is reported as “weakly inhibited” and the “Relative Activity(%) XP2” value was determined as 74%.
For the compound `[N-]=[N+]=[N-].[Na+]` [NaN3], the “Relative Activity(%) XP2” value in the data set on XP2 [1] (setting [13]) is given as 109%. Moreover, the “Relative Activity(%) XP1” value in the data set with XP1 [2] amounted to 96%.
Regarding `[Cl][Ni][Cl]` [NiCl2], in the data set with XP1 [3], the “Relative Activity(%) XP1” value stood at 129%. The “Relative Activity(%) XP2” value in the data set with XP2 [4] is listed as 93%.
Consider `[Cl-].[Rb+]` [RbCl], for which the “Relative Activity(%) XP1” value in the data set with XP1 [3] came to 121%. In addition, the “Relative Activity(%) XP2” value in the data set with XP2 [4] came out at 98%.
With `CCCCCCCCCCCCOS(=O)(=O)O` [SDS], the “inhibition of XP2 by inhibitor (in words)” value with XP2 [1] (1 mM) is recorded as “strongly inhibited”. In addition, the “Relative Activity(%) XP2” value in the data set with XP2 [1] (setting [13]) turned out to be 0%. The “inhibition of XP1 by inhibitor (in words)” value against XP1 [5] (1 mM) is on record as “strongly inhibited”. Moreover, the activity at 1000 µM in the data set with XP1 [2] is 0%.
As for “XP1: thermostable xylanase from Bacillus sp. 2113 culture, active fraction eluted earlier; amino acid sequence SEQ ID NO: 1”, in data set [7] (50° C.), the “residual enzyme activity after 30 min treatment at 50° C.” value is listed as ≥ 90%. Moreover, the “residual enzyme activity after 30 min treatment at 60° C.” value in data set [7] (60° C.) is listed as ≥ 50%. Further, the “products formed upon acting on xylan” value in [8] is “xyloligosaccharides”. The “optimum temperature for reaction” value in [9] was determined as 70 °C. The compound also registered a specific activity in data set [10] of 1420 U/mg. Further, the substrate specificity result in “Substrate specificity” is “act on prepared xylans such as birch xylan and oat spelt xylan, as well as xylan-containing materials such as hardwood kraft pulp and oat spelt bran; also recorded: acting on prepared xylans including birch xylan and oat spelt xylan, as well as xylan-containing materials including hardwood kraft pulp and oat spelt bran”. Further, the “optimum pH for reaction” value in data set [11] was 5-8. In addition, the “pH at which the xylanase is stable” value in data set [12] is listed as 3.0-9.0.
